Experimental findings from patent US20160343958A1, “ORGANIC TRANSISTOR, COMPOUND, ORGANIC SEMICONDUCTOR MATERIAL FOR NON-LIGHT-EMITTING ORGANIC SEMICONDUCTOR DEVICE, MATERIAL FOR ORGANIC TRANSISTOR, COATING SOLUTION FOR NON-LIGHT-EMITTING ORGANIC SEMICONDUCTOR DEVICE, AND ORGANIC SEMICONDUCTOR FILM FOR NON-LIGHT-EMITTING ORGANIC SEMICONDUCTOR DEVICE” (FUJIFILM Corporation, priority 2014, published 2016) are described below.

The data set is described as follows: Solubility in toluene. The class given is physicochemical. To be noted: 5-level grade A-E. On the procedure:
Each of the compounds of the present invention or comparative compounds (2% by mass, 1% by mass, 0.5% by mass, or 0.1% by mass each) was mixed with toluene (1 mL), heated to 100° C., and then left to stand for 30 minutes at room temperature. […] For practical use, the compound needs to be evaluated to be A, B, C, or D. The compound preferably needs to be evaluated to be A, B, or C, more preferably needs to be evaluated to be A or B, and particularly preferably needs to be evaluated to be A.
E: Precipitation occurred at 0.1% by mass.
Take `CCCc1ccc2c(c1)sc1c2ccc2c3ccc(CCC)cc3sc21` [Compound example 1]: the Solubility result is “B (Precipitation did not occur at 1% by mass but occurred at 2% by mass.)”.

In the case of `CCCCCc1ccc2c(c1)sc1c2ccc2c3ccc(CCCCC)cc3sc21` [Compound example 3], the Solubility result was “A (Precipitation did not occur at 2% by mass.)”.

`CCCCCCCCc1ccc2c(c1)sc1c2ccc2c3ccc(CCCCCCCC)cc3sc21` [Compound example 6]: the Solubility entry was “A (Precipitation did not occur at 2% by mass.)”.

In the case of `CCCCCCCCCCCCc1ccc2c(c1)sc1c2ccc2c3ccc(CCCCCCCCCCCC)cc3sc21` [Compound example 10], the Solubility result is given as “A (Precipitation did not occur at 2% by mass.)”.

Regarding `CCCCCCCCCCCCCCCCCCc1ccc2c(c1)sc1c2ccc2c3ccc(CCCCCCCCCCCCCCCCCC)cc3sc21` [Compound example 16], the Solubility result is recorded as “B (Precipitation did not occur at 1% by mass but occurred at 2% by mass.)”.

With `CCCCCCCCc1ccc2cc3c(cc2c1)sc1c3ccc2c3cc4ccc(CCCCCCCC)cc4cc3sc21` [Compound example 20], the Solubility entry is “B (Precipitation did not occur at 1% by mass but occurred at 2% by mass.)”.

In the case of `CCCCCCCCCCCCc1ccc2cc3c(cc2c1)sc1c3ccc2c3cc4ccc(CCCCCCCCCCCC)cc4cc3sc21` [Compound example 24], the Solubility result is recorded as “B (Precipitation did not occur at 1% by mass but occurred at 2% by mass.)”.

Consider `CCCCCCCCc1ccc(-c2ccc3c(c2)sc2c3ccc3c4ccc(-c5ccc(CCCCCCCC)cc5)cc4sc32)cc1` [Compound example 34], for which the Solubility entry is “B (Precipitation did not occur at 1% by mass but occurred at 2% by mass.)”.

Regarding `CCCCCCCCc1ccc(-c2ccc3c(c2)sc2c3ccc3c4ccc(-c5ccc(CCCCCCCC)s5)cc4sc32)s1` [Compound example 62], the Solubility entry is “B (Precipitation did not occur at 1% by mass but occurred at 2% by mass.)”.

For `CCCCCCCC/C=C/c1ccc2c(c1)sc1c2ccc2c3ccc(/C=C/CCCCCCCC)cc3sc21` [Compound example 298], the Solubility entry is recorded as “B (Precipitation did not occur at 1% by mass but occurred at 2% by mass.)”.

For `CCCCCCC#Cc1ccc2c(c1)sc1c2ccc2c3ccc(C#CCCCCCC)cc3sc21` [Compound example 310], the Solubility entry is “B (Precipitation did not occur at 1% by mass but occurred at 2% by mass.)”.

For the compound `CCCCCCCCOc1ccc2c(c1)sc1c2ccc2c3ccc(OCCCCCCCC)cc3sc21` [Compound example 326], the Solubility entry is given as “B (Precipitation did not occur at 1% by mass but occurred at 2% by mass.)”.

As to `CCCCCCCCCCCCc1ccc2cc3c(cc2c1)sc1c3ccc2c3ccc(CCCCCCCCCCCC)cc3sc21` [Compound example 344], the Solubility entry was “B (Precipitation did not occur at 1% by mass but occurred at 2% by mass.)”.

`CCCCCCCCCCCCc1ccc2c(c1)sc1c2ccc2c3ccccc3sc21` [Compound example 358]: the Solubility result is recorded as “B (Precipitation did not occur at 1% by mass but occurred at 2% by mass.)”.

For `CCCCCCCCCCCCc1ccc(-c2ccc3c(c2)sc2c3ccc3c4ccccc4sc32)cc1` [Compound example 372], the Solubility entry is given as “B (Precipitation did not occur at 1% by mass but occurred at 2% by mass.)”.

Consider `CCCCCCCCCCCCc1ccc(-c2ccc3c(c2)sc2c3ccc3c4ccccc4sc32)s1` [Compound example 386], for which the Solubility entry is recorded as “B (Precipitation did not occur at 1% by mass but occurred at 2% by mass.)”.

Consider `CCCCCCCCc1ccc2sc3c(ccc4c5cc(CCCCCCCC)ccc5sc43)c2c1` [Compound example 396], for which the Solubility entry is reported as “B (Precipitation did not occur at 1% by mass but occurred at 2% by mass.)”.

For the compound `CCCCC(CC)Cc1ccc2c(c1)sc1c2ccc2c3ccc(CC(CC)CCCC)cc3sc21` (stereo not shown) [Compound example 407], the Solubility entry is “A (Precipitation did not occur at 2% by mass.)”.

With `CCCCCCCCc1ccc2c(c1)oc1c2ccc2c3ccc(CCCCCCCC)cc3oc21` [Compound example 416], the Solubility entry is “C (Precipitation did not occur at 0.5% by mass but occurred at 1% by mass.)”.

On to `C[Si](C)(C)C#Cc1c(C#C[Si](C)(C)C)c2c3ccc(-c4cccs4)cc3sc2c2sc3cc(-c4cccs4)ccc3c12` [Compound example 427], for which the Solubility entry is on record as “D (Precipitation did not occur at 0.1% by mass but occurred at 0.5% by mass.)”.

Take `c1ccc2c(c1)sc1c2ccc2c3ccccc3sc21` [comparative compound 1, reference compound]: the Solubility result is “E (Precipitation occurred at 0.1% by mass.)”.

`Cc1ccc2c(c1)sc1c2ccc2c3ccc(C)cc3sc21` [comparative compound 2, reference compound]: the Solubility result was “E (Precipitation occurred at 0.1% by mass.)”.

In the case of `c1ccc2c(c1)sc1c2ccc2c3cccc(-c4ccc5c6ccccc6c6ccccc6c5c4)c3sc21` [comparative compound 6, reference compound], the Solubility result is “E (Precipitation occurred at 0.1% by mass.)”.

For the compound `c1ccc(-c2cccc(-c3ccc4sc5c(ccc6c7cc(-c8cccc(-c9ccccc9)c8)ccc7sc65)c4c3)c2)cc1` [compound 3, reference compound], the Solubility entry is reported as “E (Precipitation occurred at 0.1% by mass.)”.

Turning to `c1ccc(-c2ccc3sc4c5sc6ccc(-c7ccccc7)cc6c5c(-c5ccccc5)c(-c5ccccc5)c4c3c2)cc1` [compound 4, reference compound], the Solubility result was “E (Precipitation occurred at 0.1% by mass.)”.
